Experimental data from ChEMBL document CHEMBL1150113, “Ulongamides A-F, new beta-amino acid-containing cyclodepsipeptides from Palauan collections of the marine cyanobacterium Lyngbya sp” (J Nat Prod, 2002).
Activity calls are given as the source filed them. No cut-off for these calls is given here.

Assays:
Assay type in all cases: functional, cell-based
LoVo [1] = experiment: Cytotoxicity against human LoVo cells at < 10 uM
KB [2] = experiment: Cytotoxicity against human KB cells at < 10 uM
LoVo [3] = experiment: Cytotoxicity against human LoVo cells
KB [4] = experiment: Cytotoxicity against human KB cells

Row | Structure (SMILES) | Activity (LoVo [1]) | Activity (KB [2]) | IC50 (LoVo [3]) [µM] | IC50 (KB [4]) [µM]
1 | CCC[C@H]1NC(=O)c2csc(n2)[C@H](C)NC(=O)[C@H](C(C)C)N(C)C(=O)[C@H](C(C)C)NC(=O)[C@H]([C@@H](C)CC)OC(=O)[C@H]1C | inactive | inactive | – | –
2 | CCC[C@H]1NC(=O)c2csc(n2)[C@H](C)NC(=O)[C@H](C(C)C)N(C)C(=O)[C@H](Cc2ccccc2)N(C)C(=O)[C@H](C)OC(=O)[C@@H]1C [ULONGAMIDE A] | – | – | 5 | 1
3 | CCC[C@H]1NC(=O)c2csc(n2)[C@H](C)NC(=O)[C@H](C(C)C)N(C)C(=O)[C@H](Cc2ccc(O)cc2)N(C)C(=O)[C@H](C)OC(=O)[C@@H]1C [ULONGAMIDE B] | – | – | 5 | 1
4 | CCC[C@H]1NC(=O)c2csc(n2)[C@H](C)NC(=O)[C@H](Cc2ccccc2)N(C)C(=O)[C@H](Cc2ccc(O)cc2)N(C)C(=O)[C@H](C)OC(=O)[C@@H]1C [ULONGAMIDE C] | – | – | 5 | 1
5 | CCC[C@H]1NC(=O)c2csc(n2)[C@H](C)NC(=O)[C@H](C(C)C)N(C)C(=O)[C@H](Cc2ccc(O)cc2)N(C)C(=O)[C@H](C(C)C)OC(=O)[C@H]1C [ULONGAMIDE D] | – | – | 5 | 1
6 | CCC[C@H]1NC(=O)c2csc(n2)[C@H](C)NC(=O)[C@H](C(C)C)N(C)C(=O)[C@H](Cc2ccc(O)cc2)N(C)C(=O)[C@H]([C@H](C)CC)OC(=O)[C@H]1C [ULONGAMIDE E] | – | – | 5 | 1
